Measurements reported in patent US9499486B2, “Kinase inhibitor” (RESPIVERT LIMITED, priority 2014, dated 2016).
Read-outs that look alike come from different tables or passages of the source.

Columns and labels:
hERG = hERG (Homo sapiens (Human), UniProt Q12809); experiment: hERG inhibition, IonWorks patch clamp electrophysiology; type: cell-based; conditions: human; Top Concentration 3 μM
Description: (§1) The compound of the invention was tested for inhibition of the human ether a go-go (hERG) channel using IonWorks™ patch clamp electrophysiology at Essen Bioscience (Welwyn Garden City, England).

[1] = biological target: human ether a go-go (hERG) channel (Homo sapiens (Human), UniProt Q12809); experiment: as above; type: cell-based; conditions: IonWorks patch clamp
Sequence of human ether a go-go (hERG) channel (Q12809 whole entry): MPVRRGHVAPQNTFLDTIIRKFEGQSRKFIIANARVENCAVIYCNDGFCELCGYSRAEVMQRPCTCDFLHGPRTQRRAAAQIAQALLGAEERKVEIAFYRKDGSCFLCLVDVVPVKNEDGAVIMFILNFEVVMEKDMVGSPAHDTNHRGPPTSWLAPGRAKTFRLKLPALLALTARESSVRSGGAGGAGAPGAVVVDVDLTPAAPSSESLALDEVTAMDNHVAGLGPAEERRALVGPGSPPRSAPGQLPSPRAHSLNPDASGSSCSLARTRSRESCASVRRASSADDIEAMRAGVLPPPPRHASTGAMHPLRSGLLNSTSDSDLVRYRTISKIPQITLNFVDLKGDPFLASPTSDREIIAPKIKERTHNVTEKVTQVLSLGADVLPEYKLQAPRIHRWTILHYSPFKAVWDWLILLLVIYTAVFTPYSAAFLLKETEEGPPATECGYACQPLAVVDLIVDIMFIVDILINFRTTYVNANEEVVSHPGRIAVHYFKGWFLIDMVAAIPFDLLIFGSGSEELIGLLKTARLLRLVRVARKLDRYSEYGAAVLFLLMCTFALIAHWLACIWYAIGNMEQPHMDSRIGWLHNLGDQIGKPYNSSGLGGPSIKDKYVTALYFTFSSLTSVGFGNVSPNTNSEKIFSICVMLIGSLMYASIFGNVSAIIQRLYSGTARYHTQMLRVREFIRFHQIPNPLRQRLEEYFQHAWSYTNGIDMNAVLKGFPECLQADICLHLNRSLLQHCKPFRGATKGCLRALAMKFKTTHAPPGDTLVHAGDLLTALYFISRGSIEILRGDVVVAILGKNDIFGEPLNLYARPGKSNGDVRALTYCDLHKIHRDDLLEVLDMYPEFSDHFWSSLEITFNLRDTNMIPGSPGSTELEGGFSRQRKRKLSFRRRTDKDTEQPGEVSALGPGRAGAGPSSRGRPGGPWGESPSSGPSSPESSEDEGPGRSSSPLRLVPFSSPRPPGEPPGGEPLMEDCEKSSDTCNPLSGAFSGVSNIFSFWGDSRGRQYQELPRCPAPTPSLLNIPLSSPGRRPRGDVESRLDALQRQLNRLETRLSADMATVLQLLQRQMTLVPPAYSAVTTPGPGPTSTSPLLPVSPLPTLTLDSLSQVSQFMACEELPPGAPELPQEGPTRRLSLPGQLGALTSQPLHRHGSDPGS
Description: as §1

[2] = tested on: eyes of albino New Zealand White rabbits
Syk [3] = biological target: T1, Syk (Homo sapiens (Human), UniProt P43405); experiment: Syk enzyme inhibition, Z-LYTE FRET; type: biochemical
Description: (§2) The enzyme inhibitory activities of the compound disclosed herein are determined by FRET using synthetic peptides labelled with both donor and acceptor fluorophores (Z-LYTE, Invitrogen Ltd., Paisley, UK).
The inhibitory activities of the compound of the invention against c-Src and Syk enzymes (Invitrogen), are evaluated in a similar fashion to that described hereinabove. The relevant enzyme (3000 ng/mL or 2000 ng/mL respectively, 2.5 μL) is incubated with the test compound (either 1 μg/mL, 0.1 μg/mL, 0.01 μg/mL, or 0.001 μg/mL, 2.5 μL each) for 2 hr at RT. The FRET peptides (8 μM, 2.5 μL), and appropriate ATP solutions (2.5 μL, 800 μM for c-Src, and 60 μM ATP for Syk) are then added to the enzymes/compound mixtures and the mixture incubated for 1 hr. Development reagent (protease, 5 μL) is added for 1 hr prior to detection in a fluorescence microplate reader (Varioskan® Flash, ThermoFisher Scientific).
(§3) In all cases, the site-specific protease cleaves non-phosphorylated peptide only and eliminates the FRET signal. Phosphorylation levels of each reaction are calculated using the ratio of coumarin emission (donor) over fluorescein emission (acceptor), for which high ratios indicate high phosphorylation and low ratios indicate low phosphorylation levels.

p38 MAPKα [4] = biological target: T2, p38 MAPKα (Homo sapiens (Human), UniProt Q16539); experiment: p38 MAPKα enzyme inhibition (Method 2), Z-LYTE FRET; type: biochemical
T2 sequence (Q16539 whole entry, looked up): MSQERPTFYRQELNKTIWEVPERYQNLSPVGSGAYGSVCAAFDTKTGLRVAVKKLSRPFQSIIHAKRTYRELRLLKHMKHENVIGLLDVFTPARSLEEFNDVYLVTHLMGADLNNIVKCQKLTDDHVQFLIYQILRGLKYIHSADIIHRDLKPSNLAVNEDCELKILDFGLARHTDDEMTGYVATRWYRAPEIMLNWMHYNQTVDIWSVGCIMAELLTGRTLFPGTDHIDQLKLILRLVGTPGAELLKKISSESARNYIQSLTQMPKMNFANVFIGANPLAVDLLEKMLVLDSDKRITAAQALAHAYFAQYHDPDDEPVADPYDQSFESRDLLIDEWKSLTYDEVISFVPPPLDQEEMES
Description: as §2
The inhibitory activities of test compounds against the p38 MAPKα isoform (MAPK14: Invitrogen) are evaluated indirectly by determining the level of activation/phosphorylation of the down-stream molecule, MAPKAP-K2. The p38 MAPKα protein (80 ng/mL, 2.5 μL) is mixed with the test compound (2.5 μL of either 4 μg/mL, 0.4 μg/mL, 0.04 μg/mL or 0.004 μg/mL) for 2 hr at RT. […] The mixture is incubated for 1 hr at RT. Development reagent (protease, 5 μL) is added for 1 hr prior to detection in a fluorescence microplate reader (Varioskan® Flash, ThermoFisher Scientific). […]
as §3

[5] = tested on: Salmonella typhimurium, strains TA1535, TA1537, TA98 and TA100 and Escherichia coli, WP2 uvrA; experiment: Bacterial reverse mutation screen (plate incorporation)
Syk [6] = biological target: T1, Syk; experiment: KINOMEscan dissociation constant, Syk; type: binding
Excerpt: (§4) These assays may be conducted by DiscoverX (formerly Ambit; San Diego, Calif.).

LPS-stimulated rats = experiment: Endotoxin-induced uveitis in rats; type: in vivo, rat; conditions: mean ± SEM; for IL-1β Anterior tissue / IL-1β Posterior tissue: LPS-stimulated rats; for Cell counts: aqueous humor
Description: Male, Lewis rats (6-8 weeks old, Charles River UK Limited) are housed in cages of 3 at 19-21° C. with a 12 h light/dark cycle (07:00/19:00) and fed a standard diet of rodent chow and water ad libitum. Non-fasted rats are weighed, individually identified on the tail with a permanent marker, and receive a single intravitreal administration into the right vitreous humor (5 μL dose volume) of 100 ng/animal of LPS (Escherichia coli 0111:B4 prepared in PBS, Sigma Aldrich, UK) using a 32-gauge needle. Untreated rats are injected with PBS. Test compound or vehicle (4% polyoxyl 40 stearate, 4% mannitol in PBS (pH 7.4)) are administered by the topical route onto the right eye (10 μL) of animals 1 hour prior to LPS, at the time of LPS administration, and 1, 2 and 4 hours post LPS administration. Before administration, the solution to be administered is sonicated to ensure a clear solution. 6 hours after LPS dosing, animals are euthanized by overdose with pentobarbitone (via cardiac puncture). Immediately after euthanasia, 10 μL of aqueous humor is collected from the right eye of the rats by puncture of the anterior chamber using a 32 gauge needle under a surgical microscope. The aqueous humor is diluted in 20 μL of PBS and total cell counts are measured immediately using a Countess automated cell counter (Invitrogen). Following collection of the aqueous humour, the right eye of each animal is enucleated and dissected into front (anterior) and back (posterior) sections around the lens. Each section is weighed and homogenised in 500 μL of sterile phosphate buffered saline followed by 20 minutes centrifugation at 12000 rpm at 4° C. The resulting supernatant is divided into 3 aliquots and stored at −80° C. until subsequent cytokine analysis by R&D DuoSet ELISA.

[7] = Systemic pharmacokinetics and total colon tissue distribution after single oral administration; type: in vivo, mouse; conditions: mice, single oral administration
Description: Studies were conducted by Sai Life Sciences (Hinjewadi, Pune, India) to investigate the systemic pharmacokinetics and total colon tissue distribution of the compound of the invention. In particular, pharmacokinetic studies were carried out in male C57BL/6 mice following a single oral administration of the compound.

p38 MAPKα [8] = biological target: T2, p38 MAPKα; experiment: KINOMEscan dissociation constant, p38 MAPKα; type: binding
Excerpt: as §4

Sequence of hERG (Q12809 whole entry): as the sequence (Q12809 whole entry) above

In the case of `COc1cc(Nc2cc(Oc3ccc(NC(=O)Nc4cc(C(C)(C)C)cc(NS(C)(=O)=O)c4OC)c4ccccc34)ccn2)ccc1C(=O)O` [Example 1, 4-((4-((4-(3-(5-(tert-Butyl)-2-methoxy-3-(methylsulfonamido)phenyl)ureido)naphthalen-1-yl)oxy)pyridin-2-yl)amino)-2-methoxybenzoic acid], the inhibition at 3 µM (hERG) is reported as -4%, the IC50 [1] is reported as > 3300 nM and the “ocular reactions compared with vehicle controls” value ([2]; Phase 1, one treatment day, 0.1 and 1.0 mg/mL) is reported as “no differences in the frequency, severity and incidence”. The “local tolerability of the formulations” value ([2]; Phase 1, single dosing day, 0.1 and 1.0 mg/mL) was “acceptable”, the “local tolerability of the formulations” value ([2]; Phase 2, three consecutive treatment days, 0.1 and 1.0 mg/mL) was “acceptable without any aggravation” and the “effects on body weight and food consumption” value ([2]; rabbits, ocular 0.1 and 1.0 mg/mL, four daily instillations) was “no effects on body weight, nor on food consumption”. The IC50 (Syk [3]) was 5 nM, the IC50 (p38 MAPKα [4]) was 11 nM and the mutagenic effects ([5]; 15-1500 μg/plate, all strains, presence and absence of S-9 mix) was “absence of any mutagenic effects”. The “toxicity of the test item to the bacteria” value ([5]; 500 and 1500 μg/plate in TA98, 1500 μg/plate in TA1535, presence of S-9 mix) was “reduction in the mean colony count”, the “limit of solubility in mutation test” value ([5]; all strains, presence and absence of S-9 mix, plate incorporation) was 1500 μg/plate and the “increases in revertant numbers” value ([5]; any strain, any dose level, presence or absence of S-9 mix) was “no dose-related or statistically significant increases”. For the same molecule, the Kd (Syk [6]) was 7.1 nM, the “IL-1β Anterior tissue” value (LPS-stimulated rats; 0.001 mg/mL topical) was 1558.1 ± 145.7 pg/mL and the “IL-1β Posterior tissue” value (LPS-stimulated rats; 0.001 mg/mL topical) was 867.9 ± 120.8 pg/mL. For the same molecule, the Cell counts (LPS-stimulated rats; 0.001 mg/mL topical) was 63.6 ± 7.0 ×10^5/mL, the “IL-1β Anterior tissue” value (LPS-stimulated rats; 0.01 mg/mL topical) was 980.0 ± 110.8 pg/mL and the “IL-1β Posterior tissue” value (LPS-stimulated rats; 0.01 mg/mL topical) was 740.5 ± 56.2 pg/mL. For the same molecule, the Cell counts (LPS-stimulated rats; 0.01 mg/mL topical) was 43.5 ± 6.3 ×10^5/mL, the “IL-1β Anterior tissue” value (LPS-stimulated rats; 0.1 mg/mL topical) was 791.2 ± 131.9 pg/mL and the “IL-1β Posterior tissue” value (LPS-stimulated rats; 0.1 mg/mL topical) was 327.4 ± 61.4 pg/mL. The Cell counts (LPS-stimulated rats; 0.1 mg/mL topical) was 30.4 ± 6.7 ×10^5/mL, the “IL-1β Anterior tissue” value (LPS-stimulated rats; 1 mg/mL topical) was 367.3 ± 100.4 pg/mL and the “IL-1β Posterior tissue” value (LPS-stimulated rats; 1 mg/mL topical) was 188.1 ± 54.7 pg/mL. The Cell counts (LPS-stimulated rats; 1 mg/mL topical) was 21.9 ± 5.0 ×10^5/mL, the “systemic plasma or blood exposures” value [7] was “very low or negligible” and the Kd (p38 MAPKα [8]) was 2.8 nM.
